Experimental data as given in ChEMBL document CHEMBL1201862, “PubChem BioAssay data set” (2004).
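Tested at 5 concentrations; 48 h exposure; 96-well plates; endpoints linearly interpolated, else capped at highest concentration. The concentration for 50% growth inhibition is given as GI50.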 Calls of active or inactive are those of the source. No stated cut-off is given here; in the data, active = GI50 up to about 1.1 µM and inactive = higher.

Key:
Assay in all cases: NCI tumour cell line growth inhibition, 48 h
NCI-H226 = test system: NCI-H226
SNB-19 = test system: SNB-19
HCC 2998 = test system: HCC 2998
RXF 393 = test system: RXF 393
UACC-62 = test system: UACC-62
EKVX = test system: EKVX
NCI-H522 = test system: NCI-H522
SK-MEL-2 = test system: SK-MEL-2
DMS-114 = test system: DMS-114
786-0 = test system: 786-0
SN12C = test system: SN12C
TK-10 = test system: TK-10
K562 = test system: K562
CAKI-1 = test system: CAKI-1
IGROV-1 = test system: IGROV-1
U-251 = test system: U-251
MOLT-4 = test system: MOLT-4
UACC-257 = test system: UACC-257
NCI-H23 = test system: NCI-H23
SNB-78 = test system: SNB-78
XF498 = test system: XF498
SF-268 = test system: SF-268
SK-MEL-28 = test system: SK-MEL-28
CCRF-CEM = test system: CCRF-CEM
A549 = test system: A549
DMS-273 = test system: DMS-273
SW-620 = test system: SW-620
LXFL 529 = test system: LXFL 529
SF-539 = test system: SF-539
SR = test system: SR
M19-MEL = test system: M19-MEL
HOP-62 = test system: HOP-62
HCT-15 = test system: HCT-15
ACHN = test system: ACHN
DLD-1 = test system: DLD-1
OVCAR-5 = test system: OVCAR-5
SK-OV-3 = test system: SK-OV-3
HOP-92 = test system: HOP-92
HOP-18 = test system: HOP-18
OVCAR-4 = test system: OVCAR-4
A498 = test system: A498
NCI-H460 = test system: NCI-H460
RXF 631 = test system: RXF 631
HT-29 = test system: HT-29
KM-20L2 = test system: KM-20L2
HCT-116 = test system: HCT-116
M14 = test system: M14
SNB-75 = test system: SNB-75
SF-295 = test system: SF-295
SK-MEL-5 = test system: SK-MEL-5
OVCAR-8 = test system: OVCAR-8
Malme-3M = test system: Malme-3M
HL-60 = test system: HL-60
UO-31 = test system: UO-31
RPMI-8226 = test system: RPMI-8226
KM12 = test system: KM12
OVCAR-3 = test system: OVCAR-3
LOX IMVI = test system: LOX IMVI
COLO 205 = test system: COLO 205

Measured: GI50

CN(C)C(=S)/N=c1\ssc(=S)n1C
inactive: NCI-H226 > 100 µM | SNB-19 > 100 µM | HCC 2998 > 100 µM | RXF 393 > 100 µM | UACC-62 > 100 µM | EKVX > 100 µM | NCI-H522 > 100 µM | SK-MEL-2 > 100 µM | DMS-114 > 100 µM | 786-0 > 100 µM | SN12C > 100 µM | TK-10 > 100 µM | K562 > 100 µM | CAKI-1 > 100 µM | IGROV-1 > 100 µM | U-251 > 100 µM | MOLT-4 > 100 µM | UACC-257 > 100 µM | NCI-H23 > 100 µM | SNB-78 > 100 µM | XF498 > 100 µM | SF-268 > 100 µM | SK-MEL-28 > 100 µM | CCRF-CEM > 100 µM | A549 > 100 µM | DMS-273 > 100 µM | SW-620 > 100 µM | LXFL 529 > 100 µM | SF-539 > 100 µM | SR > 100 µM | M19-MEL > 100 µM | HOP-62 > 100 µM | ACHN > 100 µM | DLD-1 > 100 µM | OVCAR-5 > 100 µM | SK-OV-3 > 100 µM | HOP-92 > 100 µM | HOP-18 > 100 µM | OVCAR-4 > 100 µM | A498 > 100 µM | NCI-H460 > 100 µM | RXF 631 > 100 µM | HT-29 > 100 µM | KM-20L2 > 100 µM | HCT-116 > 100 µM | M14 > 100 µM | SNB-75 > 100 µM | SF-295 > 100 µM | SK-MEL-5 > 100 µM | OVCAR-8 > 100 µM | Malme-3M > 100 µM | HL-60 > 100 µM | UO-31 > 100 µM | RPMI-8226 > 100 µM | KM12 > 100 µM
> 100 µM: HCT-15

CCCCCCCCCCCCCCCCP(=O)(OC)OC
16.6 µM: HCT-15
inactive: NCI-H226 17.1 µM | SNB-19 15.2 µM | HCC 2998 15.4 µM | RXF 393 19 µM | UACC-62 14.6 µM | EKVX 15 µM | NCI-H522 13.5 µM | SK-MEL-2 16.4 µM | OVCAR-3 17.8 µM | DMS-114 16.1 µM | 786-0 17.6 µM | SN12C 17.2 µM | TK-10 17.1 µM | K562 22.5 µM | CAKI-1 16.6 µM | IGROV-1 16.7 µM | U-251 17.9 µM | MOLT-4 16.5 µM | UACC-257 17.5 µM | NCI-H23 16.5 µM | SNB-78 17.7 µM | XF498 13.1 µM | SK-MEL-28 17.7 µM | CCRF-CEM 22.3 µM | A549 17.7 µM | DMS-273 14.5 µM | SW-620 14.7 µM | LXFL 529 15.8 µM | SF-539 20.6 µM | SR 19.1 µM | M19-MEL 16.4 µM | HOP-62 12 µM | ACHN 14.8 µM | DLD-1 17.5 µM | OVCAR-5 13.9 µM | SK-OV-3 15.2 µM | HOP-92 16.4 µM | HOP-18 15 µM | OVCAR-4 20.7 µM | NCI-H460 17.3 µM | RXF 631 16.9 µM | HT-29 17.5 µM | KM-20L2 22.4 µM | HCT-116 18.9 µM | M14 16.3 µM | SNB-75 16.6 µM | LOX IMVI 16.9 µM | SF-295 18 µM | COLO 205 17 µM | SK-MEL-5 16.4 µM | OVCAR-8 15.8 µM | Malme-3M 18.2 µM | HL-60 11.6 µM | UO-31 11.7 µM | RPMI-8226 13.2 µM | KM12 17.9 µM

COc1ccc2nc3cc(Cl)ccc3c(Sc3ccc(N)cc3)c2c1
3.94 µM: HCT-15
inactive: NCI-H226 18.5 µM | SNB-19 16.9 µM | HCC 2998 12.2 µM | RXF 393 11.7 µM | UACC-62 5.04 µM | EKVX 11.7 µM | NCI-H522 4.83 µM | SK-MEL-2 13.8 µM | OVCAR-3 9.57 µM | DMS-114 4.99 µM | 786-0 6.95 µM | SN12C 11.6 µM | TK-10 13.2 µM | K562 3.42 µM | CAKI-1 12.9 µM | IGROV-1 16.1 µM | U-251 10.5 µM | MOLT-4 2.56 µM | UACC-257 13.2 µM | NCI-H23 14.1 µM | SNB-78 12.5 µM | XF498 14.2 µM | SF-268 11.6 µM | SK-MEL-28 14.9 µM | CCRF-CEM 3.81 µM | A549 12.5 µM | DMS-273 10.6 µM | SW-620 3.77 µM | LXFL 529 4.32 µM | SF-539 13.9 µM | SR 2.62 µM | M19-MEL 7.62 µM | HOP-62 24.2 µM | ACHN 10.1 µM | DLD-1 4.47 µM | OVCAR-5 19.8 µM | SK-OV-3 4.37 µM | HOP-92 24.4 µM | HOP-18 12.2 µM | OVCAR-4 15.5 µM | A498 29.1 µM | NCI-H460 7.98 µM | RXF 631 11 µM | KM-20L2 4.59 µM | HCT-116 4.78 µM | M14 9.06 µM | SNB-75 11 µM | LOX IMVI 7.6 µM | SF-295 16.7 µM | COLO 205 11.2 µM | SK-MEL-5 12.4 µM | OVCAR-8 11 µM | Malme-3M 15 µM | UO-31 10.8 µM | KM12 6.76 µM
